The values that follow come from paper PMC2607018, “Iodine Atoms: A New Molecular Feature for the Design of Potent Transthyretin Fibrillogenesis Inhibitors” (PLoS ONE, 2009).

The first experiment concerns the target TTR variant Y78F (Homo sapiens, UniProt P02766, Y98F). The experiment in a line: Kinetic turbidity assay of acid induced fibril formation. To be noted: fibrillogenesis inhibition assay, effect of iodination; read-out: Inhibitory efficiency, rough screening (Figure 3, measure not given). Format: biochemical. From the text: Two different parameters can be derived from this kinetic test. The IC50 value is the inhibitor concentration at which the initial rate of fibril formation is half than that in the absence of inhibitor. In turn, RA (%) can be defined as the percent reduction of fibril formation rate at high inhibitor concentration relative to the rate at zero concentration of tested compound.
An in vitro turbidimetric test in a high troughput mode was used to assess the fibrillogenesis inhibition potency of the compounds of the library. The mutant protein TTRY78F was incubated with various concentrations of test compounds in 96 well microplates. After lowering the pH of the solutions to 4.2, the incubation was extended for 1.5 h while recording the absorbance at 340 nm at 1 min intervals. […] (Figure S1).
The mutant Y78F TTR protein (0.4 mg.mL^-1) was incubated for 30 min (pH 7.6, 37 °C) with 6 concentrations of test compounds ranging from 0 to 40 µM in 96-well microplates.
IC50% value is the inhibitor concentration at which the initial rate of fibril formation is half of that in the absence of inhibitor. RA(%) is the percentage of reduction in fibril formation rate induced by a given concentration of test compound relative to the rate of experiments at zero concentration of test compound.
Take `O=C(O)c1ccc(-c2ccccc2)cc1` [Biphenyl carboxylic, reference compound]: the IC50 was 49 µM.

`O=C(O)c1ccc(Oc2ccccc2)cc1` [Phenoxybenzoic, reference compound]: the IC50 was found to be 29 µM.

Regarding `O=C(O)c1ccccc1O` [reference compound], the IC50 is more than 100 µM.

`O=C(O)c1ccccc1Nc1cccc(C(F)(F)F)c1` [Flufenamic, reference compound]: the IC50 came out at 10.9 µM.

The same experiment, now with this note: inhibitor concentration at which the initial rate of fibril formation is half; Y78F TTR 0.4 mg/mL, pH 4.2, 37 °C; read-out: Kinetic turbidity assay IC50.
Take `CC(C)CC(NC(=O)c1cc(-c2ccc(F)cc2F)cc(I)c1O)C(=O)OC(C)(C)C` [13b, N-[2’-,4’-difluoro-4-hydroxy-5-iodo-[1,1’]-biphenyl-3-carbonyl)-L-leucine tert-butyl ester]: the IC50 is more than 50 µM.

For `COC(=O)c1cc(-c2ccc(F)cc2F)ccc1O` [3a, 2’,4’-difluoro-4-hydroxy-[1,1’]-biphenyl-3-carboxylic methyl ester], the IC50 is more than 50 µM.

Consider `O=C(O)C[C@H](NC(=O)c1cc(-c2ccc(F)cc2F)ccc1O)C(=O)O` [16a, N-[2’,4’-difluoro-4-hydroxy-[1,1’]-biphenyl-3-carbonyl]-L-aspartic], for which the IC50 is more than 50 µM.

`O=C(N[C@@H](CO)C(=O)O)c1cc(-c2ccc(F)cc2F)cc(I)c1O` [14b, N-[2’,4’-difluoro-4-hydroxy-5-iodo-[1,1’]-biphenyl-3-carbonyl]–L-serine]: the IC50 worked out at 3.7 µM.

`CC(NC(=O)c1cc(-c2ccc(F)cc2F)cc(I)c1O)C(=O)O` [9b, N-[2’,4’-difluoro-4-hydroxy-5-iodo-hydroxy-[1,1’]-biphenyl-3-carbonyl]-L-alanine]: the IC50 came to 5.8 µM.

Turning to `CC(C)C[C@H](NC(=O)c1cc(-c2ccc(F)cc2F)ccc1O)C(=O)O` [12a, N-[2’,4’-difluoro-4-hydroxy-[1,1’]-biphenyl-3-carbonyl]-L-leucine], the IC50 was more than 50 µM.

Take `COC(=O)[C@H](CO)NC(=O)c1cc(-c2ccc(F)cc2F)cc(I)c1O` [15b, N-[2’,4’-difluoro-4-hydroxy-5-iodo-[1,1’]-biphenyl-3-carbonyl]-L-serine methyl ester]: the IC50 worked out at 7.2 µM.

`COC(=O)c1cc(-c2ccc(F)cc2F)cc(I)c1N` [6b, 2’,4’-difluoro-4-amino-3-iodo-[1,1’]-biphenyl-3-carboxylic acid methyl ester]: the IC50 stood at 7.5 µM.

On to `CC(C)(C)OC(=O)[C@H](CC(N)=O)NC(=O)c1cc(-c2ccc(F)cc2F)cc(I)c1O` [21b, N-[2’,4’-difluoro-4-hydroxy-5-iodo-[1,1’]-biphenyl-3-carbonyl]-L-asparagine tert-butyl ester], for which the IC50 is 9.7 µM.

As for `COC(=O)C(CC(=O)O)NC(=O)c1cc(-c2ccc(F)cc2F)ccc1O` [17a, N-[2’,4’-difluoro-4-hydroxy-[1,1’]-biphenyl-3-carbonyl]-L-aspartic α-methyl ester], the IC50 was more than 50 µM.

Regarding `CCOC(=O)[C@H](C)NC(=O)c1cc(-c2ccc(F)cc2F)ccc1O` [11a, N-[2’,4’-difluoro-4-hydroxy-[1,1’]-biphenyl-3-carbonyl]-L-alanine ethyl ester], the IC50 is more than 50 µM.

As to `C[C@H](NC(=O)c1cc(-c2ccc(F)cc2F)ccc1O)C(=O)O` [9a, N-[2’,4’-difluoro-4-hydroxy-[1,1’]-biphenyl-3-carbonyl]-L-alanine], the IC50 is more than 50 µM.

Take `COC(=O)CCNC(=O)c1cc(-c2ccc(F)cc2F)ccc1O` [23a, N-[2’,4’-difluoro-4-hydroxy-[1,1’]-biphenyl-3-carbonyl]-β-alanine methyl ester]: the IC50 was more than 50 µM.

Regarding `CC(C)(C)OC(=O)CC(NC(=O)c1cc(-c2ccc(F)cc2F)cc(I)c1O)C(=O)O` [18b, N-[2’,4’-difluoro-4-hydroxy-5-iodo-[1,1’]-biphenyl-3-carbonyl]-L-aspartic β-tert-butyl ester], the IC50 is 6 µM.

`NC(=O)c1cc(-c2ccc(F)cc2F)cc(I)c1O` [2b, 2’,4’-difluoro-4-hydroxy-5-iodo-[1,1’]-biphenyl-3-carboxamide]: the IC50 stood at 12.4 µM.

As to `O=C(O)CC(NC(=O)c1cc(-c2ccc(F)cc2F)cc(I)c1O)C(=O)O` [16b, N-[2’-,4’-difluoro-4-hydroxy-5-iodo-[1,1’]-biphenyl-3-carbonyl]-L-aspartic], the IC50 was 5.2 µM.

`COC(=O)[C@H](CO)NC(=O)c1cc(-c2ccc(F)cc2F)ccc1O` [15a, N-[2’,4’-difluoro-4-hydroxy-[1,1’]-biphenyl-3-carbonyl]-L-serine methyl ester]: the IC50 was more than 50 µM.

On to `CCOC(=O)c1cc(-c2ccc(F)cc2F)cc(I)c1O` [4b], for which the IC50 is 6.9 µM.

With `NC(=O)c1cc(-c2ccc(F)cc2F)ccc1O` [2a, 2’,4’-difluoro-4-hydroxy-[1,1’]-biphenyl-3-carboxamide], the IC50 is more than 50 µM.

With `CC(=O)Oc1c(I)cc(-c2ccc(F)cc2F)cc1C(=O)O` [7b, 4-Acetoxy-2’,4’-difluoro-5-iodo-[1,1’]-biphenyl-3-carboxylic acid], the IC50 amounted to 4.8 µM.

With `O=C(NC(CO)C(=O)O)c1cc(-c2ccc(F)cc2F)ccc1O` (centres unmarked) [14a], the IC50 is more than 50 µM.

Take `Oc1c(I)cc(I)cc1I` [TIP, triiodophenol, reference compound]: the IC50 is 3.2 µM.

As to `COC(=O)[C@H](C)NC(=O)c1cc(-c2ccc(F)cc2F)ccc1O` [10a, N-[2’,4’-difluoro-4-hydroxy-[1,1’]-biphenyl-3-carbonyl]-L-alanine methyl ester], the IC50 was more than 50 µM.

Turning to `CC(C)C[C@H](NC(=O)c1cc(-c2ccc(F)cc2F)cc(I)c1O)C(=O)O` [12b, N-[2’,4’-difluoro-4-hydroxy-5-iodo-[1,1’]-biphenyl-3-carbonyl]-L-leucine], the IC50 was 5 µM.

As for `O=C(O)CNC(=O)c1cc(-c2ccc(F)cc2F)cc(I)c1O` [8b, N-[2’-,4’-difluoro-4-hydroxy-5-iodo-[1,1’]-biphenyl-3-carbonyl]-glycine], the IC50 amounted to 11.1 µM.

For `Nc1c(I)cc(-c2ccc(F)cc2F)cc1C(=O)O` [5b, 2’,4’-difluoro-4-amino-3-iodo-[1,1’]-biphenyl-3-carboxylic acid], the IC50 was determined as 16.3 µM.

In the case of `COC(=O)[C@H](C)NC(=O)c1cc(-c2ccc(F)cc2F)cc(I)c1O` [10b, N-[2’,4’-difluoro-4-hydroxy-5-iodo-[1,1’]-biphenyl-3-carbonyl] -L-alanine methyl ester], the IC50 was determined as 5.5 µM.

Take `COC(=O)C(CC(=O)O)NC(=O)c1cc(-c2ccc(F)cc2F)cc(I)c1O` [17b, N-[2’,4’-difluoro-4-hydroxy-5-iodo-[1,1’]-biphenyl-3-carbonyl]-L-aspartic α-methyl ester]: the IC50 is 4.1 µM.

Turning to `Nc1ccc(-c2ccc(F)cc2F)cc1C(=O)O` [5a, 2’,4’-difluoro-4-amino-[1,1’]-biphenyl-3-carboxylic acid], the IC50 is more than 50 µM.

On to `NC(Cc1ccc(Oc2ccc(O)cc2)cc1)C(=O)O` (centres unmarked) [T0, thyronine, reference compound], for which the IC50 is more than 50 µM.

Regarding `NC(=O)C[C@H](NC(=O)c1cc(-c2ccc(F)cc2F)ccc1O)C(=O)O` [20a, N-[2’,4’-difluoro-4-hydroxy-[1,1’]-biphenyl-3-carbonyl]-L-asparagine], the IC50 was more than 50 µM.

Consider `CC(=O)Oc1ccc(-c2ccc(F)cc2F)cc1C(=O)O` [7a, 4-Acetoxy-2’,4’-difluoro-[1,1’]-biphenyl-3-carboxylic acid], for which the IC50 was more than 50 µM.

As to `CCOC(=O)c1cc(-c2ccc(F)cc2F)ccc1O` [4a, 2’,4’-difluoro-4-hydroxy-[1,1’]-biphenyl-3-carboxylic acid ethyl ester], the IC50 was more than 50 µM.

Take `COC(=O)c1cc(-c2ccc(F)cc2F)ccc1N` [6a, 2’,4’-difluoro-4-amino-[1,1’]-biphenyl-3-carboxylic acid methyl ester]: the IC50 amounted to 41 µM.

Turning to `NC(=O)CC(NC(=O)c1cc(-c2ccc(F)cc2F)cc(I)c1O)C(=O)O` [20b, N-[2’-,4’-difluoro-4-hydroxy-5-iodo-[1,1’]-biphenyl-3-carbonyl]-L-asparagine], the IC50 was 7.7 µM.

In the case of `CC(C)(C)OC(=O)[C@H](CC(N)=O)NC(=O)c1cc(-c2ccc(F)cc2F)ccc1O` [21a, N-[2’,4’-difluoro-4-hydroxy-[1,1’]-biphenyl-3-carbonyl]-L-asparagine tert-butyl ester], the IC50 was more than 50 µM.

Regarding `CC(C)(C)OC(=O)CC(NC(=O)c1cc(-c2ccc(F)cc2F)ccc1O)C(=O)O` [18a, N-[2’,4’-difluoro-4-hydroxy-[1,1’]-biphenyl-3-carbonyl]-L-aspartic β-tert-butyl ester], the IC50 was found to be 38.3 µM.

For `COC(=O)c1cc(-c2ccc(F)cc2F)cc(I)c1O` [3b, 2’,4’-difluoro-4-hydroxy-5-iodo-[1,1’]-biphenyl-3-carboxylic methyl ester], the IC50 is 6.1 µM.

On to `O=C(O)CNC(=O)c1cc(-c2ccc(F)cc2F)ccc1O` [8a, N-[2’,4’-difluoro-4-hydroxy-[1,1’]-biphenyl-3-carbonyl]-glycine], for which the IC50 is more than 50 µM.

Take `COC(=O)C(CC(=O)OC(C)(C)C)NC(=O)c1cc(-c2ccc(F)cc2F)ccc1O` [19a, N-[2-,4’-difluoro-4-hydroxy-[1,1’]-biphenyl-3-carbonyl]-L-aspartic α-methyl ester and β-tert-butyl ester]: the IC50 was more than 50 µM.
